Experimental data reported in US10738028B2, “Spiro three-membered ring, spiro five-membered ring peptide deformylase inhibitor and use thereof in antibacteria and anti-tumor” (priority 2016, dated 2020).
Converted amounts (≈) assume the structure as drawn.

Legend:
Assay type in all cases: cell-based
[1] = tested on: Moraxella catarrhalis (BCA); assay: MIC, two-fold agar dilution (CLSI), clinical isolates; settings: for Anti-bacterial activity (MIC), strain BCA 14-10: clinical isolate BCA 14-10
Text: (§1) 1. The invention adopts the two-fold agar dilution method recommended by the operating procedure of antimicrobial susceptibility testing set by American Clinical and Laboratory Standards Institute (CLSI) to determine the Minimum Inhibitory Concentration (MIC) of the test samples against the tested strains.

[2] = tested on: methicillin-resistant Staphylococcus aureus (MRSA); assay: as above
Text: as §1

[3] = tested on: methicillin-resistant Staphylococcus epidermidis (MRSE); assay: as above
Text: as §1

[4] = tested on: methicillin-sensitive Staphylococcus aureus (MSSA); assay: as above
Text: as §1

[5] = tested on: Streptococcus pneoumoniae (SPN); assay: as above
Text: as §1

[6] = tested on: methicillin-sensitive Staphylococcus epidermidis (MSSE); assay: as above
Text: as §1

[7] = tested on: Escherichia coli (including ESBLs, non-ESBLs); assay: as above
Text: as §1

[8] = tested on: Enterococcus faecalis (EFA); assay: as above
Text: as §1

[9] = tested on: Enterococcus faecium (EFM); assay: as above
Text: as §1

[10] = tested on: HCT-116 colorectal cancer cell line; assay: CCK-8 proliferation inhibition; settings: Homo sapiens, HCT-116, 72 h, concentration of 30 μM; 72 hours; CCK-8; read-out: HCT116 inhibition rate/%
Procedure, shortened: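 Cells seeded at 2000 cells/well, cultured overnight at 37 °C, 5% CO2, then exposed to compound (DMSO; control 1‰ DMSO) for 72 h in McCoy's 5A with 10% newborn bovine serum. Viability read with 1:10 diluted CCK-8.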

O=CN(O)C[C@@H](CC1CCCC1)C(=O)N1CC2(CC2)C[C@H]1C(=O)Nc1ccncn1 [Example 27, (S)-5-((R)-3-cyclopentyl-2-((N-hydroxyformamido)methyl)propionyl)-N-(pyrimidin-4-yl)-5-spiro[2.4]heptane-6-carboxamide]
Anti-bacterial activity (MIC), strain BCA 14-10 [1]: 0.5 µg/mL
MIC (anti-bacterial activity) ([1]; strain BCA 14-1): 2 µg/mL (≈ 4.81 µM)
MIC (anti-bacterial activity) ([1]; strain BCA 14-4): 2 µg/mL (≈ 4.81 µM)
MIC (anti-bacterial activity) ([1]; strain BCA 14-5): 0.25 µg/mL (≈ 0.602 µM)
MIC (anti-bacterial activity) ([1]; strain BCA 14-6): 0.125 µg/mL (≈ 0.301 µM)
MIC (anti-bacterial activity) ([1]; strain BCA 14-7): 0.25 µg/mL (≈ 0.602 µM)
MIC (anti-bacterial activity) ([1]; strain BCA 14-8): 0.5 µg/mL (≈ 1.2 µM)
MIC (anti-bacterial activity) ([2]; strain MRSA 15-1): 0.125 µg/mL (≈ 0.301 µM)
MIC (anti-bacterial activity) ([2]; strain MRSA 15-2): 0.125 µg/mL (≈ 0.301 µM)
MIC (anti-bacterial activity) ([2]; strain MRSA 15-3): 0.125 µg/mL (≈ 0.301 µM)
MIC (anti-bacterial activity) ([2]; strain MRSA 15-4): 0.125 µg/mL (≈ 0.301 µM)
MIC (anti-bacterial activity) ([3]; strain MRSE 15-1): 0.06 µg/mL (≈ 0.144 µM)
MIC (anti-bacterial activity) ([3]; strain MRSE 15-2): 0.125 µg/mL (≈ 0.301 µM)
MIC (anti-bacterial activity) ([3]; strain MRSE 15-3): 0.125 µg/mL (≈ 0.301 µM)
MIC (anti-bacterial activity) ([3]; strain MRSE 15-7): 0.125 µg/mL (≈ 0.301 µM)
MIC (anti-bacterial activity) ([4]; strain MSSA 15-3): 0.125 µg/mL (≈ 0.301 µM)
MIC (anti-bacterial activity) ([4]; strain MSSA 15-4): 0.125 µg/mL (≈ 0.301 µM)
MIC (anti-bacterial activity) ([4]; strain MSSA 15-5): 0.125 µg/mL (≈ 0.301 µM)
MIC (anti-bacterial activity) ([4]; strain MSSA 15-6): 0.125 µg/mL (≈ 0.301 µM)
MIC (anti-bacterial activity) ([5]; strain SPN 16-2): 0.25 µg/mL (≈ 0.602 µM)
MIC (anti-bacterial activity) ([5]; strain SPN 16-4): 2 µg/mL (≈ 4.81 µM)
MIC (anti-bacterial activity) ([6]; strain MSSE 15-3): 0.125 µg/mL (≈ 0.301 µM)
MIC (anti-bacterial activity) ([6]; strain MSSE 15-4): 0.125 µg/mL (≈ 0.301 µM)
MIC (anti-bacterial activity) ([6]; strain MSSE 15-5): 0.125 µg/mL (≈ 0.301 µM)
MIC (anti-bacterial activity) ([6]; strain MSSE 15-6): 0.125 µg/mL (≈ 0.301 µM)
MIC (anti-bacterial activity) ([7]; strain ECO+ 15-1): 16 µg/mL (≈ 38.5 µM)
MIC (anti-bacterial activity) ([7]; strain ECO+ 15-2): 32 µg/mL (≈ 77 µM)
MIC (anti-bacterial activity) ([7]; strain ECO+ 15-3): 32 µg/mL (≈ 77 µM)
MIC (anti-bacterial activity) ([7]; strain ECO+ 15-4): 32 µg/mL (≈ 77 µM)
MIC (anti-bacterial activity) ([7]; strain ECO− 15-1): 32 µg/mL (≈ 77 µM)
MIC (anti-bacterial activity) ([7]; strain ECO− 15-2): 32 µg/mL (≈ 77 µM)
MIC (anti-bacterial activity) ([7]; strain ECO− 15-3): 32 µg/mL (≈ 77 µM)
MIC (anti-bacterial activity) ([7]; strain ECO− 15-4): 32 µg/mL (≈ 77 µM)
MIC (anti-bacterial activity) ([8]; strain EFA 15-1): 2 µg/mL (≈ 4.81 µM)
MIC (anti-bacterial activity) ([8]; strain EFA 15-2): 2 µg/mL (≈ 4.81 µM)
MIC (anti-bacterial activity) ([8]; strain EFA 15-3): 2 µg/mL (≈ 4.81 µM)
MIC (anti-bacterial activity) ([8]; strain EFA 15-4): 2 µg/mL (≈ 4.81 µM)
MIC (anti-bacterial activity) ([8]; strain EFA 15-5): 2 µg/mL (≈ 4.81 µM)
MIC (anti-bacterial activity) ([8]; strain EFA 15-6): 2 µg/mL (≈ 4.81 µM)
MIC (anti-bacterial activity) ([8]; strain EFA 15-9): 2 µg/mL (≈ 4.81 µM)
MIC (anti-bacterial activity) ([9]; strain EFM 15-1): 0.25 µg/mL (≈ 0.602 µM)
MIC (anti-bacterial activity) ([9]; strain EFM 15-2): 1 µg/mL (≈ 2.41 µM)
MIC (anti-bacterial activity) ([9]; strain EFM 15-3): 0.25 µg/mL (≈ 0.602 µM)
MIC (anti-bacterial activity) ([9]; strain EFM 15-4): 0.5 µg/mL (≈ 1.2 µM)
MIC (anti-bacterial activity) ([9]; strain EFM 15-5): 0.25 µg/mL (≈ 0.602 µM)
MIC (anti-bacterial activity) ([9]; strain EFM 15-6): 0.5 µg/mL (≈ 1.2 µM)
inhibition at 30 µM [10]: 17%

O=CN(O)C[C@@H](CC1CCCC1)C(=O)N1CC2(CC2)C[C@H]1C(=O)Nc1ccc(F)cn1 [Example 28]
Anti-bacterial activity (MIC), strain BCA 14-10 [1]: 0.25 µg/mL
MIC (anti-bacterial activity) ([1]; strain BCA 14-1): 1 µg/mL (≈ 2.31 µM)
MIC (anti-bacterial activity) ([1]; strain BCA 14-4): 1 µg/mL (≈ 2.31 µM)
MIC (anti-bacterial activity) ([1]; strain BCA 14-5): 0.25 µg/mL (≈ 0.578 µM)
MIC (anti-bacterial activity) ([1]; strain BCA 14-6): 1 µg/mL (≈ 2.31 µM)
MIC (anti-bacterial activity) ([1]; strain BCA 14-7): 0.125 µg/mL (≈ 0.289 µM)
MIC (anti-bacterial activity) ([1]; strain BCA 14-8): 0.5 µg/mL (≈ 1.16 µM)
MIC (anti-bacterial activity) ([2]; strain MRSA 15-1): 0.125 µg/mL (≈ 0.289 µM)
MIC (anti-bacterial activity) ([2]; strain MRSA 15-2): 0.125 µg/mL (≈ 0.289 µM)
MIC (anti-bacterial activity) ([2]; strain MRSA 15-3): 0.125 µg/mL (≈ 0.289 µM)
MIC (anti-bacterial activity) ([2]; strain MRSA 15-4): 0.125 µg/mL (≈ 0.289 µM)
MIC (anti-bacterial activity) ([3]; strain MRSE 15-1): 0.125 µg/mL (≈ 0.289 µM)
MIC (anti-bacterial activity) ([3]; strain MRSE 15-2): 0.5 µg/mL (≈ 1.16 µM)
MIC (anti-bacterial activity) ([3]; strain MRSE 15-3): 0.5 µg/mL (≈ 1.16 µM)
MIC (anti-bacterial activity) ([3]; strain MRSE 15-7): 0.5 µg/mL (≈ 1.16 µM)
MIC (anti-bacterial activity) ([4]; strain MSSA 15-3): 0.125 µg/mL (≈ 0.289 µM)
MIC (anti-bacterial activity) ([4]; strain MSSA 15-4): 0.125 µg/mL (≈ 0.289 µM)
MIC (anti-bacterial activity) ([4]; strain MSSA 15-5): 0.125 µg/mL (≈ 0.289 µM)
MIC (anti-bacterial activity) ([4]; strain MSSA 15-6): 0.125 µg/mL (≈ 0.289 µM)
MIC (anti-bacterial activity) ([5]; strain SPN 16-4): 1 µg/mL (≈ 2.31 µM)
MIC (anti-bacterial activity) ([6]; strain MSSE 15-3): 0.125 µg/mL (≈ 0.289 µM)
MIC (anti-bacterial activity) ([6]; strain MSSE 15-4): 0.125 µg/mL (≈ 0.289 µM)
MIC (anti-bacterial activity) ([6]; strain MSSE 15-5): 0.125 µg/mL (≈ 0.289 µM)
MIC (anti-bacterial activity) ([6]; strain MSSE 15-6): 0.06 µg/mL (≈ 0.139 µM)
MIC (anti-bacterial activity) ([7]; strain ECO+ 15-1): 16 µg/mL (≈ 37 µM)
MIC (anti-bacterial activity) ([7]; strain ECO+ 15-2): 64 µg/mL (≈ 148 µM)
MIC (anti-bacterial activity) ([7]; strain ECO+ 15-3): 64 µg/mL (≈ 148 µM)
MIC (anti-bacterial activity) ([7]; strain ECO+ 15-4): 32 µg/mL (≈ 74 µM)
MIC (anti-bacterial activity) ([7]; strain ECO− 15-1): 32 µg/mL (≈ 74 µM)
MIC (anti-bacterial activity) ([7]; strain ECO− 15-2): 32 µg/mL (≈ 74 µM)
MIC (anti-bacterial activity) ([7]; strain ECO− 15-3): 64 µg/mL (≈ 148 µM)
MIC (anti-bacterial activity) ([7]; strain ECO− 15-4): 64 µg/mL (≈ 148 µM)
MIC (anti-bacterial activity) ([8]; strain EFA 15-1): 2 µg/mL (≈ 4.62 µM)
MIC (anti-bacterial activity) ([8]; strain EFA 15-2): 2 µg/mL (≈ 4.62 µM)
MIC (anti-bacterial activity) ([8]; strain EFA 15-3): 2 µg/mL (≈ 4.62 µM)
MIC (anti-bacterial activity) ([8]; strain EFA 15-4): 2 µg/mL (≈ 4.62 µM)
MIC (anti-bacterial activity) ([8]; strain EFA 15-5): 2 µg/mL (≈ 4.62 µM)
MIC (anti-bacterial activity) ([8]; strain EFA 15-6): 2 µg/mL (≈ 4.62 µM)
MIC (anti-bacterial activity) ([8]; strain EFA 15-9): 2 µg/mL (≈ 4.62 µM)
MIC (anti-bacterial activity) ([9]; strain EFM 15-1): 0.5 µg/mL (≈ 1.16 µM)
MIC (anti-bacterial activity) ([9]; strain EFM 15-2): 1 µg/mL (≈ 2.31 µM)
MIC (anti-bacterial activity) ([9]; strain EFM 15-3): 0.125 µg/mL (≈ 0.289 µM)
MIC (anti-bacterial activity) ([9]; strain EFM 15-4): 1 µg/mL (≈ 2.31 µM)
MIC (anti-bacterial activity) ([9]; strain EFM 15-5): 1 µg/mL (≈ 2.31 µM)
MIC (anti-bacterial activity) ([9]; strain EFM 15-6): 1 µg/mL (≈ 2.31 µM)
inhibition at 30 µM [10]: 21%
